System: 565726-208-R1-J5-PDC complex spheroids, growth inhibition
Experiment: Anticancer human tumor 565726-208-R1-J5-PDC patient-derived pancreatic adenocarcinoma cell line growth inhibition [RAS]
Conditions: for IC50: curve of first compound; for viability, T/C: stronger effect = lower value
From the text: RAS pathway inhibitors in Combinations in Complex Spheroids
A high-throughput screen of multi-cell type tumor spheroids was designed to identify active combinations of RAS pathway inhibitors and targeted small molecules. Complex spheroids include a stromal component modeled by human endothelial cells (HUVEC) and fibroblasts modeled by human mesenchymal stem cells (MSCs). The concentration ranges selected for each drug and investigational agent were based upon clinically achievable concentrations if the clinical Cmax of the agent was known.
Compounds. The drugs and investigational agents: abemaciclib (NSC768073), cobimetinib (NSC768068), divarasib (GDC6063, NSC841802), docetaxel (NSC628503), GDC-1971 (RLY-1971, NSC841576), gemcitabine (NSC613327), inavolisib (NSC800729), ipatasertib (NSC767898), KB-0742 (NSC834161), MRTX-1133 (NSC836407), osimertinib (NSC779217), RMC-4630 (NSC839698), RMC-6236 (NSC851965), RMC-6291 (NSC852671), Ro-3306 (NSC812927), sapanisertib (NSC764658), SN-38 (NSC673596), staurosporine (NSC755774), SY5609 (NSC837396), and tovorafenib (DAY101, NSC766906), were obtained from the National Cancer Institute (NCI) Developmental Therapeutics Program Chemical Repository. The FDA-approved anticancer drug set is available from the NCI Developmental Therapeutics Program. […] The stock solutions were prepared in dimethyl sulfoxide (DMSO, Sigma-Aldrich, St. Louis, MO, cat. D2650) at 800-fold the tested concentration and stored at -70 degrees C prior to their use. All drugs and investigational agents were tested over a range starting from a high concentration at or near the clinical Cmax and decreasing in half-log increments. If the clinical Cmax for an agent had not been determined, the highest concentration tested was 10 microM.
Cell Culture. All cells were maintained in an incubator at 37 degrees C and 5% CO2 with 95% humidity. The PDC lines were cultured according to standard operating procedures established by the NCI PDMR. All PDCs were thawed and cultured in Matrigel-coated flasks prepared with a working solution of 1X Ham's F-12 nutrient mix, without supplementation (Invitrogen, Waltham, MA, cat. 11765054), 100 U/mL penicillin-streptomycin (Invitrogen, cat. 15140122), and 2.5% Matrigel (Corning Inc., Corning, NY, cat. 354248) for the first three passages. The 362531-283-R-J2-PDC and 782815-120-R-J1-PDC lines were cultured in 6C/Colon 1B media, which includes advanced DMEM/F-12 (Thermo Fisher Scientific, cat. 12634028), 10 mM HEPES (Thermo Fisher Scientific, cat. 15630080), 1X GlutaMAX supplement (Thermo Fisher Scientific, cat. 35050061), 0.1 mg/mL primocin (InvivoGen, San Diego, CA, cat. ant-pm-2), 10% defined fetal bovine serum, heat inactivated (HyClone Laboratories Inc., Logan, UT, cat. SH30070.03HI), 50% L-WRN conditioned media (ATCC, cat. CRL-3276), 1.25 mM N-Acetyl-L-cysteine (Sigma-Aldrich, cat. A9165), 10 mM nicotinamide (Sigma-Aldrich, cat. N0636), 1X B-27 supplement (Thermo Fisher Scientific, cat. 17504044), 1X N-2 supplement (Thermo Fisher Scientific, cat. 17502048), 50 ng/mL human EGF (Thermo Fisher Scientific, cat. PHG0311), and 10 microM Y-27632 dihydrochloride (Tocris Bioscience, cat. 1254). The K12877-001-R-J1-PDC line was cultured in 6I media, which includes all 6C/Colon 1B media plus 10 ng/mL human FGF-10 (PeproTech, cat. 100-26), 1 ng/mL human FGF-2 (PeproTech, cat. 100-18B), 1 µM prostaglandin E2 (Tocris Bioscience, cat. 2296), […] hydrocortisone (Sigma-Aldrich, cat. H4001), and […] bovine insulin (Sigma-Aldrich, cat. I6634). The K86415-001-R-J1-PDC line was cultured in 6D media, which includes all 6C/Colon 1B media components minus the L-WRN conditioned media. The 485176-168-R4-J1-PDC was cultured in PANC media, which includes all 6C/Colon 1B media plus 100 ng/mL human FGF-10 (PeproTech, cat. 100-26), 500 nM SB-431542 (Selleckchem, cat. S1067), and 10 nM gastrin (Tocris Bioscience, cat. 3006). […]
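Further: spheroids exposed to compounds for seven days before readout.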
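Wherever viability, T/C is given: 100% = DMSO vehicle control viability.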

For `NC1c2ccccc2OC12CCN(c1cnc3c(N4CCCc5ncccc54)n[nH]c3n1)CC2` (configuration not stated) + CCn1c(-c2cccnc2C(C)OC)c2c3cc(ccc31)N1CCOC(CC(NC(=O)C(C(C)C)N(C)C(=O)C3(F)CCN(C(=O)C#CC(C)(C)N(C)C)CC3)C(=O)N3CCCC(N3)C(=O)OCC(C)(C)C2)C1, the IC50 (second compound 0.000949 µM) was greater than 10 µM, the IC50 (second compound 0.003 µM) was greater than 10 µM and the IC50 (second compound 0.00949 µM) was greater than 10 µM. It also gave an IC50 (second compound 0.03 µM) greater than 10 µM, an IC50 (second compound 0.0949 µM) greater than 10 µM and an IC50 (second compound 0.3 µM) of 8.09 µM. It also gave a viability, T/C (second compound 0.000949 µM, first compound 0.0316 µM) of 82.5%, a viability, T/C (second compound 0.000949 µM, first compound 0.1 µM) of 77.5% and a viability, T/C (second compound 0.000949 µM, first compound 0.316 µM) of 72.6%. It also gave a viability, T/C (second compound 0.000949 µM, first compound 1 µM) of 60.9%, a viability, T/C (second compound 0.000949 µM, first compound 3.16 µM) of 65.7% and a viability, T/C (second compound 0.000949 µM, first compound 10 µM) of 56.9%. For the same compound, the viability, T/C (second compound 0.003 µM, first compound 0.0316 µM) was 82.6%, the viability, T/C (second compound 0.003 µM, first compound 0.1 µM) was 76.8% and the viability, T/C (second compound 0.003 µM, first compound 0.316 µM) was 70%. For the same compound, the viability, T/C (second compound 0.003 µM, first compound 1 µM) was 65%, the viability, T/C (second compound 0.003 µM, first compound 3.16 µM) was 62.9% and the viability, T/C (second compound 0.003 µM, first compound 10 µM) was 60.5%. The viability, T/C (second compound 0.00949 µM, first compound 0.0316 µM) was 76.3%, the viability, T/C (second compound 0.00949 µM, first compound 0.1 µM) was 85.5% and the viability, T/C (second compound 0.00949 µM, first compound 0.316 µM) was 70%. It also gave a viability, T/C (second compound 0.00949 µM, first compound 1 µM) of 65%, a viability, T/C (second compound 0.00949 µM, first compound 3.16 µM) of 64.8% and a viability, T/C (second compound 0.00949 µM, first compound 10 µM) of 55.5%. The viability, T/C (second compound 0.03 µM, first compound 0.0316 µM) was 85.4%, the viability, T/C (second compound 0.03 µM, first compound 0.1 µM) was 76.3% and the viability, T/C (second compound 0.03 µM, first compound 0.316 µM) was 73.4%. For the same compound, the viability, T/C (second compound 0.03 µM, first compound 1 µM) was 62.7%, the viability, T/C (second compound 0.03 µM, first compound 3.16 µM) was 58.8% and the viability, T/C (second compound 0.03 µM, first compound 10 µM) was 58.5%. It also gave a viability, T/C (second compound 0.0949 µM, first compound 0.0316 µM) of 78.8%, a viability, T/C (second compound 0.0949 µM, first compound 0.1 µM) of 75.6% and a viability, T/C (second compound 0.0949 µM, first compound 0.316 µM) of 71.5%. It also gave a viability, T/C (second compound 0.0949 µM, first compound 1 µM) of 65%, a viability, T/C (second compound 0.0949 µM, first compound 3.16 µM) of 58.5% and a viability, T/C (second compound 0.0949 µM, first compound 10 µM) of 57%. It also gave a viability, T/C (second compound 0.3 µM, first compound 0.0316 µM) of 72.8%, a viability, T/C (second compound 0.3 µM, first compound 0.1 µM) of 68.2% and a viability, T/C (second compound 0.3 µM, first compound 0.316 µM) of 68.8%. It also gave a viability, T/C (second compound 0.3 µM, first compound 1 µM) of 59.5%, a viability, T/C (second compound 0.3 µM, first compound 3.16 µM) of 54.2% and a viability, T/C (second compound 0.3 µM, first compound 10 µM) of 49.5%.
